Measurements as given in US20050014811A1, “Substituted benzimidazole compounds and their use for the treatment of cancer” (Aventis Pharma S.A., priority 2001, published 2005).

How the values were obtained:
[1] = biological target: CDK2/CyclinE (Homo sapiens, UniProt P24941); assay: CDK2/CyclinE Flashplate assay, 96-well format, biotinylated-Rb peptide substrate; format: biochemical
Procedure: This is a CDK2/CyclinE kinase assay in a 96-well Streptavidin-coated Flashplate with a biotinylated-Rb peptide substrate.
Each point is tested in duplicate
Biotinylated-Rb: Biotin-[…]-OH
• 1. Prepare substrate: 1 mg/ml solution made fresh in PBS. • 2. Add 4 μg per well to the Flashplate. • 3. Incubate for 2 hours at RT. • 4. From 10 mM inhibitor stocks in DMSO, make 1 mM, 300 μM, 100 μM, 30 μM and 10 μM series of dilution in DMSO. • 5. Was the Flashplate 3 times with 300 μl PBS to remove unbound peptide substrate. • 6. Add the CDK2/CyclinE kinase: 200 ng per well, in a volume of 90 μl in kinase buffer (except for “no enzyme” control wells). • 7. Add 1 μl per well of inhibitor to test 10 μM, 3 μM, 1 μM, 0.3 μM and 0.1 μM in final concentration per 100 μl in each well. • 8. Shake gently the Flashplate 1 minute. • 9. Incubate 30 minutes on wet ice. • 10. Initiate the reaction with 10 μl kinase buffer containing 1 μM final cold ATP and 1 μCi final ^33P-ATP per well. • 11. Shake gently the Flashplate 1 minute. • 12. Incubate 45 minutes at RT (no shaking). • 13. Wash the Flashplate 3 times with 300 μl PBS
14. Count to detect the incorporation of ^33P-ATP by the kinase to the Rb phosphorylation site.

[2] = biological target: CDK4/CyclinD1 (Homo sapiens, UniProt P11802); assay: CDK4/CyclinD1 Flashplate assay, 96-well format, biotinylated-Rb peptide substrate; format: biochemical
In short: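 Biotinylated Rb peptide bound to streptavidin Flashplate; CDK4/CyclinD1 (70 ng/well) preincubated 30 min on ice with compound at 10, 3, 1, 0.3 and 0.1 μM final. Reaction with 1 μM cold ATP plus 33P-ATP for 45 min at RT; incorporated 33P counted, duplicates.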

Chain of CDK4/CyclinD1 (P11802 whole entry, species assumed): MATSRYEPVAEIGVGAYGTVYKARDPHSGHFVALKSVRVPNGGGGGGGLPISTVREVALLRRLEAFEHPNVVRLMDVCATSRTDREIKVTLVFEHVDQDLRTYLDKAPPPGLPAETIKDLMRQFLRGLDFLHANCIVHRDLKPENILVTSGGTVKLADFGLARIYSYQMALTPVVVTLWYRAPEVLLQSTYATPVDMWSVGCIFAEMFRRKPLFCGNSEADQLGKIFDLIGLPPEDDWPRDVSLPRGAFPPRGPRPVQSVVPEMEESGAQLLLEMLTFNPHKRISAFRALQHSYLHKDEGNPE
Chain of CDK4/CyclinD1 (P24385 whole entry partner, species assumed): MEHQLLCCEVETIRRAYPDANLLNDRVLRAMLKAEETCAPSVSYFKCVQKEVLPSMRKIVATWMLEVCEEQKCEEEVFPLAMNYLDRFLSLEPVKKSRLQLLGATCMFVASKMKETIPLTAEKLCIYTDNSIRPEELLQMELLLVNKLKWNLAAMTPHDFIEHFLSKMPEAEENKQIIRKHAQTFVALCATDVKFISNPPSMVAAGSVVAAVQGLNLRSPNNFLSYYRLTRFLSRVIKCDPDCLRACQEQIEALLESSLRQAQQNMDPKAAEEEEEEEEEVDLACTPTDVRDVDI

Structure (SMILES)	IC50 [1] [µM]	IC50 [2] [µM]	inhibition at 10 µM [2] [%]
CNC(=O)Nc1nc2cc(OS(=O)(=O)c3ccc(-n4ccnc4)cc3)ccc2[nH]1 [Example 30, N-[5-(4-[imidazolyl]-phenylsulfonyloxy)-1H-benzimidazole-2-yl]-methylurea]	0.9	1.8	–
O=C(Nc1nc2cc(OS(=O)(=O)c3ccc(-n4ccnc4)cc3)ccc2[nH]1)Nc1ccccc1F [Example 36, 4-Imidazol-1-yl-benzenesulfonic acid 2-[3-(2-fluoro-phenyl)-ureido]-1H-benzoimidazol-5-yl ester]	0.53	0.77	–
O=C(Nc1nc2cc(OS(=O)(=O)c3ccc(NC4CCCC4)cc3)ccc2[nH]1)Nc1ccccc1F [Example 37, 4-Cyclopentylamino-benzenesulfonic acid 2-[3-(2-fluoro-phenyl)-ureido]-1H-benzoimidazol-5-yl ester]	0.45	0.57	–
COc1cccc(NC(=O)Nc2nc3cc(OS(=O)(=O)c4ccc(NC5CCCC5)cc4)ccc3[nH]2)c1 [Example 38, 4-Cyclopentylamino-benzenesulfonic acid 2-[3-(3-methoxy-phenyl)-ureido]-1H-benzoimidazol-5-yl ester]	4.3	1.25	–
COc1ccc(NC(=O)Nc2nc3cc(OS(=O)(=O)c4ccc(NC5CCCC5)cc4)ccc3[nH]2)cc1 [Example 39, 4-Cyclopentylamino-benzenesulfonic acid 2-[3-(4-methoxy-phenyl)-ureido]-1H-benzoimidazol-5-yl ester]	0.29	1.62	–
O=C(Nc1ccc(Cl)cc1)Nc1nc2cc(OS(=O)(=O)c3ccc(NC4CCCC4)cc3)ccc2[nH]1 [Example 40, 4-Cyclopentylamino-benzenesulfonic acid 2-[3-(4-chloro-phenyl)-ureido]-1H-benzoimidazol-5-yl ester]	1.09	3.71	–
O=C(NCc1cccc(F)c1)Nc1nc2cc(OS(=O)(=O)c3ccc(NC4CCCC4)cc3)ccc2[nH]1 [Example 41, 4-Cyclopentylamino-benzenesulfonic acid 2-[3-(3-fluoro-benzyl)-ureido]-1H-benzoimidazol-5-yl ester]	0.06	2.8	–
O=C(Nc1cccc(Cl)c1)Nc1nc2cc(OS(=O)(=O)c3ccc(NC4CCCC4)cc3)ccc2[nH]1 [Example 42, 4-Cyclopentylamino-benzenesulfonic acid 2-[3-(3-chloro-phenyl)-ureido]-1H-benzoimidazol-5-yl ester]	0.91	–	84
O=C(NCCS(=O)(=O)O)Nc1nc2cc(OS(=O)(=O)c3ccc(-n4ccnc4)cc3)ccc2[nH]1 [Example 47, 4-Imidazol-1-yl-benzenesulfonic acid 2-[3-(2-sulfo-ethyl)-ureido]-1H-benzoimidazol-5-yl ester]	0.16	0.8	–
CN(C)c1ccc(NC(=O)Nc2nc3cc(OS(=O)(=O)c4ccc(NC5CCCC5)cc4)ccc3[nH]2)cc1 [Example 49, 4-Cyclopentylamino-benzenesulfonic acid 2-[3-(4-dimethylamino-phenyl)-ureido]-1H-benzoimidazol-5-yl ester]	0.4	–	88
O=C(NCc1ccccn1)Nc1nc2cc(OS(=O)(=O)c3ccc(NC4CCCC4)cc3)ccc2[nH]1 [Example 50, 4-Cyclopentylamino-benzenesulfonic acid 2-(3-pyridin-2-ylmethyl-ureido)-1H-benzoimidazol-5-yl ester]	0.04	0.3	–
O=C(NCc1ccncc1)Nc1nc2cc(OS(=O)(=O)c3ccc(NC4CCCC4)cc3)ccc2[nH]1 [Example 52, 4-Cyclopentylamino-benzenesulfonic acid 2-(3-pyridin-4-ylmethyl-ureido)-1H-benzoimidazol-5-yl ester]	0.08	1	–
CNC(=O)Nc1nc2cc(OS(=O)(=O)c3ccc(NCC4CCCO4)cc3)ccc2[nH]1 (stereo not shown) [Example 54, 4-[(Tetrahydro-furan-2-ylmethyl)-amino]-benzenesulfonic acid 2-(3-methyl-ureido)-1H-benzoimidazol-5-yl ester]	0.005	0.5	–
O=C(Nc1ccccc1)Nc1nc2cc(OS(=O)(=O)c3ccc(-n4ccnc4)cc3)ccc2[nH]1 [Example 57-a, 4-Imidazol-1-yl-benzenesulfonic acid 2-(3-phenyl-ureido)-1H-benzoimidazol-5-yl ester]	0.24	1	–
O=C(Nc1nc2cc(OS(=O)(=O)c3ccc(-n4ccnc4)cc3)ccc2[nH]1)NC1CCCCC1 [Example 57-b, 4-Imidazol-1-yl-benzenesulfonic acid 2-(3-cyclohexyl-ureido)-1H-benzoimidazol-5-yl ester]	1.9	–	51
O=C(Nc1nc2cc(OS(=O)(=O)c3ccc(-n4ccnc4)cc3)ccc2[nH]1)NC1CCCC1 [Example 57-c, 4-Imidazol-1-yl-benzenesulfonic acid 2-(3-cyclopentyl-ureido)-1H-benzoimidazol-5-yl ester]	0.6	–	60
O=C(Nc1cccc(F)c1)Nc1nc2cc(OS(=O)(=O)c3ccc(-n4ccnc4)cc3)ccc2[nH]1 [Example 57-d, 4-Imidazol-1-yl-benzenesulfonic acid 2-[3-(3-fluoro-phenyl)-ureido]-1H-benzoimidazol-5-yl ester]	0.5	–	70
O=C(NCCO)Nc1nc2cc(OS(=O)(=O)c3ccc(-n4ccnc4)cc3)ccc2[nH]1 [Example 57-e, 4-Imidazol-1-yl-benzenesulfonic acid 2-[3-(2-hydroxy-ethyl)-ureido]-1H-benzoimidazol-5-yl ester]	0.3	–	90

The next lines start with the values.

IC50 [1] [µM]	IC50 [2] [µM]	inhibition at 10 µM [2] [%]	Structure (SMILES)
0.1	0.5	–	CNC(=O)Nc1nc2cc(OS(=O)(=O)c3ccc(NC4CCCC4)cc3)ccc2[nH]1 [Example 31, N-[5-(4-cyclopentylaminophenylsulfonyloxy)-1H-benzimidazole-2-yl]-methylurea]
1.1	> 5	–	CN(C)C(=O)Nc1nc2cc(OS(=O)(=O)c3ccc(NC4CCCC4)cc3)ccc2[nH]1 [Example 32, N-[5-(4-cyclopentylaminophenylsulfonyloxy)-1H-benzimidazole-2-yl]-dimethylurea]
0.06	0.64	–	O=C(Nc1nc2cc(OS(=O)(=O)c3ccc(NC4CCCC4)cc3)ccc2[nH]1)NC1CC1 [Example 33, 4-Cyclopentylamino-benzenesulfonic acid 2-(3-cyclopropyl-ureido)-1H-benzoimidazol-5-yl ester]
0.12	1.18	–	CC(C)NC(=O)Nc1nc2cc(OS(=O)(=O)c3ccc(NC4CCCC4)cc3)ccc2[nH]1 [Example 34, 4-Cyclopentylamino-benzenesulfonic acid 2-(3-isopropyl-ureido)-1H-benzoimidazol-5-yl ester]
0.12	1.1	–	CCCCNC(=O)Nc1nc2cc(OS(=O)(=O)c3ccc(NC4CCCC4)cc3)ccc2[nH]1 [Example 35, 4-Cyclopentylamino-benzenesulfonic acid 2-(3-butyl-ureido)-1H-benzoimidazol-5-yl ester]
0.2	1.9	–	CC(C)CNC(=O)Nc1nc2cc(OS(=O)(=O)c3ccc(NC4CCCC4)cc3)ccc2[nH]1 [Example 43, 4-Cyclopentylamino-benzenesulfonic acid 2-(3-isobutyl-ureido)-1H-benzoimidazol-5-yl ester]
0.06	0.6	–	CCNC(=O)Nc1nc2cc(OS(=O)(=O)c3ccc(NC4CCCC4)cc3)ccc2[nH]1 [Example 45, 4-Cyclopentylamino-benzenesulfonic acid 2-(3-ethyl-ureido)-1H-benzoimidazol-5-yl ester]
0.06	0.012	–	O=C(O)CNC(=O)Nc1nc2cc(OS(=O)(=O)c3ccc(NC4CCCC4)cc3)ccc2[nH]1 [Example 46, {3-[5-(4-Cyclopentylamino-benzenesulfonyloxy)-1H-benzoimidazol-2-yl]-ureido}-acetic acid]
0.04	0.3	–	COCCNC(=O)Nc1nc2cc(OS(=O)(=O)c3ccc(NC4CCCC4)cc3)ccc2[nH]1 [Example 48, 4-Cyclopentylamino-benzenesulfonic acid 2-[3-(2-methoxy-ethyl)-ureido]-1H-benzoimidazol-5-yl ester]
0.14	0.8	–	O=C(Nc1nc2cc(OS(=O)(=O)c3ccc(NC4CCCC4)cc3)ccc2[nH]1)NC1CCC1 [Example 51, 4-Cyclopentylamino-benzenesulfonic acid 2-(3-cyclobutyl-ureido)-1H-benzoimidazol-5-yl ester]
0.8	–	83	CC(C)(C)NC(=O)Nc1nc2cc(OS(=O)(=O)c3ccc(NC4CCCC4)cc3)ccc2[nH]1 [Example 53, 4-Cyclopentylamino-benzenesulfonic acid 2-(3-tert-butyl-ureido)-1H-benzoimidazol-5-yl ester]
